In publication PMC11449324, “Functional comparison of human and murine equilibrative nucleobase transporter 1” (PLOS ONE, 2024):
Like-named read-outs stand apart in the source and are kept apart here.

What was measured:
[1] = target: T1, endogenous ENBT1 expressed in MOLT-4 cells (Homo sapiens, UniProt Q8NBI5); assay: [3H]6-MP uptake in MOLT-4 cells; type: cell-based; settings: 30 μM [3H]6-MP
T1 construct: MOLT-4 cells express the SLC43A3 transcript and L1210 cells express the slc43a3 transcript; host or cells: MOLT-4
T1 sequence (Q8NBI5 1-491): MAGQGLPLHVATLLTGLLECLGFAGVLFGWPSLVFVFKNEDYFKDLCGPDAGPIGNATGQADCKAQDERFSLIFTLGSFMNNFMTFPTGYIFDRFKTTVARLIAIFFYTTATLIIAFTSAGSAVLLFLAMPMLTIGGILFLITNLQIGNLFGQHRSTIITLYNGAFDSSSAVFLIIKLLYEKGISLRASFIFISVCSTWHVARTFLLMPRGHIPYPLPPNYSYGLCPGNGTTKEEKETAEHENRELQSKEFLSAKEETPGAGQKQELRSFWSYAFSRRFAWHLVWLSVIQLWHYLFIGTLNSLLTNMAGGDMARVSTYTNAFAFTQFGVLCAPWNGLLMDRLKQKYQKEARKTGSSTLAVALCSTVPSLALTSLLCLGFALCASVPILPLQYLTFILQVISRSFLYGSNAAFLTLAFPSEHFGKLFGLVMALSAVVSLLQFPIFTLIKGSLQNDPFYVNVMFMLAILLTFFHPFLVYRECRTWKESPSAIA
Description: Harvested cells were suspended in nominally sodium-free N-methyl-D-glucamine (NMG) buffer (140 mM NMG, 5 mM KCl, 4.2 mM KHCO3, 0.36 mM K2HPO4, 0.44 mM KH2PO4, 0.5 mM MgCl2, 1.3 mM CaCl2, 10 mM HEPES, pH 7.4), to minimize potential contribution of sodium-dependent concentrative nucleoside transporter-mediated uptake. Additionally, cells were incubated for 15 minutes at room temperature with 10 μM dipyridamole (DY), an equilibrative nucleoside transporter (ENT) inhibitor, to block equilibrative nucleoside transporter–mediated uptake. The substrate uptake assay was initiated by adding 250 μL cell suspension to 250 μL [^3H] labeled substrate, layered over 21:4 silicone:mineral oil (200 μL) in 1.5 mL microcentrifuge tubes (conducted at room temperature). […] This is the minimum incubation time achievable with this oil-stop technique, and it was found in previous studies that these short incubation times were necessary to assess the kinetics of this transporter. […] The resulting cell pellet was digested in 250 μL 1 M NaOH overnight (~16 hours), with 220 μL aliquots of digested cells assessed for radioactive content using standard liquid scintillation counting techniques in a Beckman Coulter LS6500 scintillation system (Brea, CA).
In transfected-HEK293 cell lines, total uptake was defined as uptake of radiolabeled substrate in cells overexpressing recombinant hENBT1 or mENBT1. […] ENBT1-mediated uptake was calculated as total uptake minus the non-mediated uptake.
Cell water volume (μL) was estimated by incubating cells with ^3H2O for 3 minutes, centrifuging the cells through the oil layer at ~10,000 g, assessing 100 μL of the supernatant for radioactive content, and then processing as described above. Total cellular water volume was determined from the ratio of the decays per minute of the cell pellet, to the decays per minute of the supernatant, allowing for inter-experimental normalization via calculation of picomoles of substrate accumulated per microliter of cell-associated water.

HEK293-EV cells = assay: MTT cell viability assay, HEK293-EV; type: cell-based, human; settings: Homo sapiens, 48 h, first-phase EC50 where biphasic
Description: (§1) Transfected-HEK293, MOLT-4, and L1210 cells were seeded into 24-well plates at a density of 1.1x10^5 cells per well in complete culture medium. […] Medium containing no cells was used to determine spontaneous MTT reduction (background). In transfected-HEK293 cells, media was removed via a vacuum-powered aspirator and replaced with 150 μL of Dulbecco’s phosphate buffered saline (DPBS—137 mM NaCl, 2.7 mM KCl, 6.3 mM Na2HPO4, 1.5 mM KH2PO4, 0.5 mM MgCl2, 0.9 mM CaCl2, pH 7.4) containing MTT (1 mg/mL) for 90 minutes at 37°C. In MOLT-4 and L1210, cell suspension was transferred to 1.5 mL microcentrifuge tubes and centrifuged for 10 minutes at 3000 rcf. Following centrifugation, media was removed via gentle pipetting and replaced with 150 μL of DPBS containing MTT (1 mg/mL) for 90 minutes at 37°C. Microcentrifuge tubes were centrifuged again for 15 minutes at 23,500 rcf, and then DPBS containing MTT was removed via a vacuum-powered aspirator. The resultant formazan crystals were solubilized in 500 μL of DMSO and transferred to a 96-well plate in 200 μL duplicates. Absorbance was measured at 570 nm, in a SpectraMax® i3x Multi-Mode Detection Platform (Molecular Devices, San Jose, CA). After background subtraction, % cell viability was calculated as the ratio of absorbance in the presence of test compound to that measured with vehicle alone (X 100).

HEK293-hSLC43A3 cells = assay: MTT cell viability assay, HEK293-hSLC43A3; type: cell-based, human
Description: as §1

HEK293-mslc43a3 cells = assay: MTT cell viability assay, HEK293-mslc43a3; type: cell-based, human
Description: as §1

MOLT-4 cells = assay: MTT cell viability assay, MOLT-4; type: cell-based, human; settings: for EC50: Homo sapiens, MOLT-4, 48 h, read-out: first-phase EC50 cell viability
Description: as §1

L1210 cells = assay: MTT cell viability assay, L1210; type: cell-based, murine; settings: Mus musculus, L1210, 48 h, single-phase curve
Description: as §1

Row | k value of time-dependent uptake [1] | uptake plateau [1] | EC50 (MOLT-4 cells; MTT, biphasic curve (Fig 10A)) | EC50 (MOLT-4 cells; in absence of DY, solvent DMSO present) | EC50 (L1210 cells) | effect on uptake of [3H]6-MP ([1]; 5 mM adenine) | Structure (SMILES) | EC50 (HEK293-EV cells) | shift in EC50 (increased sensitivity) relative to HEK293-EV cells (HEK293-hSLC43A3 cells; HEK293-hSLC43A3 vs HEK293-EV) | EC50 (HEK293-hSLC43A3 cells; Homo sapiens, HEK293-hSLC43A3, 48 h, MTT, first-phase EC50 where biphasic) | shift in EC50 (increased sensitivity) relative to HEK293-EV cells (HEK293-mslc43a3 cells; HEK293-mslc43a3 vs HEK293-EV) | EC50 (HEK293-mslc43a3 cells; Homo sapiens, HEK293-mslc43a3, 48 h, MTT, first-phase EC50 where biphasic) | increase in 6-MP sensitivity on co-treatment with DY (MOLT-4 cells; MOLT-4, 6-MP + DY vs 6-MP + solvent)
1 | 0.34 ± 0.09 s⁻¹ | roughly 30 pmol/μL | 700 ± 200 nM | 500 ± 100 nM | 600 ± 200 nM | – | Sc1ncnc2nc[nH]c12 [6-MP, 6-Mercaptopurine] | 18800 ± 510 nM | 19 fold | 990 ± 90 nM | 19 fold | 960 ± 280 nM | 2 fold
2 | – | – | – | – | – | significantly inhibited | Nc1ncnc2[nH]cnc12 [adenine, Adenine] | – | – | – | – | – | –
